The text below walks through data of PMC8341946, “Wheat pathogen Zymoseptoria tritici N-myristoyltransferase inhibitors: on-target antifungal activity and an unusual metabolic defense mechanism” (RSC Chemical Biology, 2020).

One assay has as its system HsNMT1. Particulars: cited from earlier work; for IC50: Table S1, ref SI refs 1-7 as given with each inhibitor name; for Ki: Table S1, cells marked (Ki), ref SI refs 3, 5, 6 as given with each inhibitor name, read-out: HsNMT1 IC50 (µM), value marked (Ki).
For assay [1], the target named is T1, ZtNMTΔ99 (Zymoseptoria tritici, UniProt F9XBB7). In words: ZtNMT IC50 assay (CPM, enzymatic). Format: biochemical. The text has this: As the peptide substrate we used an octapeptide derived from the N-terminus of F9X1I2 (Z. tritici predicted homolog of ADP-ribosylation factor 1, ARF1), which we hypothesized would be natively myristoylated in vivo.
Fig. 1 ZtNMT enzymatic activity and structure. […] The CPM reagent enables fluorogenic readout of the reaction rate based on the generation of coenzyme A thiol. […] (D) ZtNMT homology model generated using Swiss Model[26] based on a reported A. fumigatus NMT X-Ray structure 4UWI[27] was aligned to HsNMT1 (PDB: 5MU6, in transparent grey). […] (E) A map of ligand interactions between docked IMP-1088 and its induced fit generated ZtNMT receptor protein residues.
The assay was adapted from a previous publication.[25] […] Accumulation of fluorescence signal at 470 nm was measured at one-minute intervals during the first 20 minutes of the reaction. Rates of the enzymatic reaction were calculated from the linear range of the resulting fluorescence over time curve using GraphPad Prizm 5. Then, sigmoidal dose–response (variable curve) fitting was applied to the data to obtain IC50 values. The assay was performed with at least 2 replicates, mean and confidence intervals are reported.

The test system of a further assay is Z. tritici. In words: Anti-proliferative EC50 assay (MTS viability). Format: cell-based, Zymoseptoria tritici.
In a further assay the test system is Z. tritici culture. The assay can be described thus: Z. tritici culture viability after 4 h treatment (microscope). In kind it is cell-based, Zymoseptoria tritici. Particulars: for culture phenotype under microscope: 4 h.
Assay [2] has as its target T1, ZtNMTΔ99. Format: biochemical. Particulars: in the presence of 32 μM myristoyl-CoA; read-out: KM(peptide).
Method: ZtNMT characterization. KM and Vmax constants measurements were performed at two
ZtNMT concentrations: 100 ng/ml and 200 ng/ml.
B) ZtARF1 Km and Vmax measured
The kinetic constants for both NMT substrates in
Setting [3] is: Table S1, enzymatic CPM assay, read-out: IC50.
Where [4] appears, read: Table S1, viability MTS assay, read-out: EC50.

A word on the IC50: it is the point on the concentration scale where inhibition reaches its midpoint. One may read the Ki as the dissociation constant of the complex between target and ligand, obtained from inhibition or displacement. The term EC50 denotes the concentration needed to bring the measured effect to its halfway point. For orientation: Km means the substrate concentration at which the rate is half of its maximum.

Like-named read-outs stand apart in the source and are kept apart here.

T1 sequence (F9XBB7 entry or part of it, stated change not applied): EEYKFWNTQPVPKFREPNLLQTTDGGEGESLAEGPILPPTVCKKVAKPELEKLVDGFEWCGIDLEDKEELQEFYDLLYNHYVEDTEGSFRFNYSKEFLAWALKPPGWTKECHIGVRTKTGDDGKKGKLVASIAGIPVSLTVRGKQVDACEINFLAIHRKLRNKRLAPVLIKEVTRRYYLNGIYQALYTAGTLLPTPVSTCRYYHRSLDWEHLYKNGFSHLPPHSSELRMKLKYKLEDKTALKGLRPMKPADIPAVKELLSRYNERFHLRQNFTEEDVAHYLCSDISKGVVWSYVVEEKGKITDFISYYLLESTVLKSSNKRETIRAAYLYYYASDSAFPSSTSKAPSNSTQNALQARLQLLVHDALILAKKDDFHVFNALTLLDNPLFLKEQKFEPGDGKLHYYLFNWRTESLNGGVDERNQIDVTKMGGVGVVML

As for `Cc1nn(C)c(C)c1CCOc1cc(F)ccc1-c1ccc2nnc(C3CCCN3)n2c1` (centres unmarked) [IMP-1090], the half-maximal inhibitory concentration (IC50) in the assay on HsNMT1 is 2590 nM; on ZtNMTΔ99 [1] (setting [3]), 22000 nM.

Regarding `Cc1nn(C)c(C)c1CCOc1cc(F)ccc1-c1ccc2[nH]nc(CN(C)C)c2c1` [IMP-917], the half-maximal inhibitory concentration (IC50) with HsNMT1 is 13 nM; on ZtNMTΔ99 [1] (setting [3]) it was 160 nM.

Consider `Cc1nn(C)c(C)c1Cc1nnc(-c2cc(Cl)ccc2OC2CCNCC2)o1` [IMP-329], for which the Ki on HsNMT1 is 0.02 µM. In the assay with Z. tritici (setting [4]), the 50% effective concentration (EC50) was 280000 nM. In addition, the IC50 at ZtNMTΔ99 [1] (setting [3]) turned out to be 870 nM.

As for `CNCc1cnc2ccc(-c3ccc(F)cc3OCCc3c(C)nn(C)c3C)cn12` [IMP-1097], the half-maximal inhibitory concentration (IC50) with HsNMT1 is 1.9 nM; at ZtNMTΔ99 [1] (setting [3]), 200 nM.

`Cc1nn(C)c(C)c1NS(=O)(=O)c1c(Cl)cc(-c2ccnc(N3CCNCC3)c2)cc1Cl` [IMP-366, reference compound] had a 50% effective concentration (EC50) with Z. tritici (Zymoseptoria tritici, Table S1, viability MTS assay) of 110000 nM. This compound showed an IC50 against ZtNMTΔ99 [1] of 50 nM.

For the compound `Cc1nn(C)c(C)c1CCOc1c(F)cccc1-c1ccc2c(c1)c(CN)nn2C` [IMP-1034], the figures for the IC50 in the assay on HsNMT1 and at ZtNMTΔ99 [1] (setting [3]) were 5 nM and 32 nM, respectively.

On to `CNCCc1cnc2ccc(-c3ccc(F)cc3OCCc3c(CO)nn(C)c3C)cn12` [IMP-1185], for which the IC50 in the assay with HsNMT1 was 25.8 nM; on ZtNMTΔ99 [1] (setting [3]), 4000 nM.

As for `CNCc1nn(C)c2ccc(-c3cccc(F)c3OCCc3c(C)nn(C)c3C)cc12` [IMP-1036], the IC50 is 16 nM with HsNMT1 and 30 nM at ZtNMTΔ99 [1] (setting [3]).

Turning to `Cc1c(CCOc2cc(F)ccc2-c2ccc3nnc(C4CNC4)n3c2)c(C(=O)N(C)C)nn1C` [IMP-1100], the IC50 is 1 nM with HsNMT1 and 16 nM at ZtNMTΔ99 [1] (setting [3]). In the assay with Z. tritici (setting [4]), the 50% effective concentration (EC50) is more than 500000 nM.

With `CNCCc1cnc2ccc(-c3ccc(F)cc3OCCc3c(C(=O)N(C)C)nn(C)c3C)cn12` [IMP-1124], the IC50 was 0.7 nM with HsNMT1 and 13 nM at ZtNMTΔ99 [1] (setting [3]).

On to `Cc1c(CCOc2cc(F)ccc2-c2ccc3ncc(CN(C)C)n3c2)c(C(=O)N(C)C)nn1C` [IMP-1134], for which the IC50 in the assay on HsNMT1 and at ZtNMTΔ99 [1] (setting [3]) was less than 1 nM in each case. The EC50 in the assay with Z. tritici (setting [4]) was found to be 27000 nM.

For `Cc1nn(C)c(C)c1CCOc1cc(F)ccc1-c1ccc2nnc(C3CNC3)n2c1` [IMP-1091], the half-maximal inhibitory concentration (IC50) in the assay on HsNMT1 is 56 nM; on ZtNMTΔ99 [1] (setting [3]), 2100 nM.

For `CNCc1nn(C)c2ccc(-c3ccc(F)c(F)c3OCCc3c(C)nn(C)c3C)cc12` [IMP-1089], the IC50 in the assay on HsNMT1 is less than 1 nM; at ZtNMTΔ99 [1] (setting [3]), 6.7 nM. Also, in the assay with Z. tritici (setting [4]), the half-maximal effective concentration (EC50) was 46000 nM.

Take `CNCc1nnc2ccc(-c3ncccc3OCCc3c(C)nn(C)c3C)cn12` [IMP-1093]: the IC50 in the assay on HsNMT1 was 7390 nM; on ZtNMTΔ99 [1] (setting [3]), more than 300000 nM.

Turning to `CNCc1nnc2ccc(-c3ccc(F)cc3OCCc3c(C(F)(F)F)nn(C)c3C)cn12` [IMP-1111], the half-maximal inhibitory concentration (IC50) is 6.5 nM in the assay on HsNMT1 and 700 nM at ZtNMTΔ99 [1] (setting [3]).

On to `N[C@H](CC(=O)N1C[C@H](CO)[C@@H](c2ccc(Cl)c(NC(=O)Cc3ccc(F)cc3)c2)C1)Cc1ccc(Cl)cc1` [IMP-162], for which the “culture phenotype under microscope” value in the assay on Z. tritici culture (24 μM and 48 μM) is on record as “phenotype consistent with cell death”; in the assay with Z. tritici culture (96 μM) it was “most cells appear dead”. Moreover, the “effect on cell viability” value in the assay with Z. tritici culture (4 h treatment, logarithmic growth phase) is on record as “kill Z. tritici culture”. Moreover, the EC50 in the assay with Z. tritici (Zymoseptoria tritici, Fig. 1B, Z. tritici cell viability, MTS, 40 h, read-out: EC50) is approximately 20000 nM; in the assay on Z. tritici (Zymoseptoria tritici, Table S1, viability MTS assay, read-out: EC50), 18000 nM. Moreover, the IC50 on ZtNMTΔ99 [1] worked out at 1900 nM.

Regarding `COc1cc(CCOC(=O)c2sc3ccccc3c2OC2CCNCC2)cc(OC)c1` [IMP-277], on HsNMT1, the Ki was 0.031 µM. The IC50 at ZtNMTΔ99 [1] (setting [3]) was more than 300000 nM.

“NH2-GLTFSKLF-OH (H-GLTFSKLF-OH) [ZtARF1 peptide, octapeptide substrate derived from the N-terminus of F9X1I2 (Z. tritici ARF1 homolog)]”: the Km in the assay with ZtNMTΔ99 [2] turned out to be 2.73 µM.

As for `CNCc1cnc2ccc(-c3ccc(F)cc3OCCc3c(C#N)nn(C)c3C)cn12` [IMP-1195], the IC50 with HsNMT1 and at ZtNMTΔ99 [1] (setting [3]) was less than 1 nM in each case.

Take `CNCc1nnc2ccc(-c3ccc(F)cc3OCCc3c(C(=O)N(C)C)nn(C)c3C)cn12` [IMP-1094]: the concentration for half-maximal inhibition (IC50) in the assay with HsNMT1 is 7 nM; on ZtNMTΔ99 [1] (setting [3]), 86 nM.

Regarding `Cc1nn(C)c(C)c1CCOc1c(F)cccc1-c1ccc2ncc(CN(C)C)n2c1` [IMP-1131], the half-inhibitory concentration (IC50) with HsNMT1 was 2.4 nM; at ZtNMTΔ99 [1] (setting [3]), 2400 nM.

As to `Cc1nn(C)c(C)c1CCOc1c(F)cccc1-c1ccc2c(c1)c(CN(C)C)nn2C` [IMP-1031], the half-inhibitory concentration (IC50) with HsNMT1 is 4.6 nM; at ZtNMTΔ99 [1] (setting [3]), 16 nM. The EC50 in the assay with Z. tritici (setting [4]) amounted to 51000 nM.

As for `CNCc1cnc2ccc(-c3ccc(F)cc3OCCc3c(C(N)=O)nn(C)c3C)cn12` [IMP-1179], the values for the IC50 with HsNMT1 and at ZtNMTΔ99 [1] (setting [3]) were 5.6 nM and 280 nM, respectively.

For `CNCc1nnc2ccc(-c3ccc(F)cc3OCCc3c(C(=O)N4CCCC4)nn(C)c3C)cn12` [IMP-1112], the half-inhibitory concentration (IC50) in the assay with HsNMT1 was 19.8 nM; at ZtNMTΔ99 [1] (setting [3]) it was 420 nM.
